According to patent US8147827B2, “Tumor treatment” (Genentech, Inc., priority 2004, dated 2012):
“And” between values parts separate entries of the source, which are not always exact repeats. Equal entries are not always repeated. “Also recorded” adds a separate entry of the source. Structures can show the parent of a compound that is named as a salt.

Legend:
mouse colon = assay: Oligonucleotide array analysis (Affymetrix Mu74Av2) of normal colon/intestine of tumor-bearing mice treated with CPT-11 or saline; format: in vivo
[1] = system: Colo205 human colorectal cancer cells; assay: Growth, treatment and resection of Colo205 tumor xenografts in nude mice (mass, H&E); format: in vivo
From the text: (§1) Growth and treatment of human tumor xenografts—Female nude mice (Charles River Laboratories, Hollister Calif.) were maintained in accordance with the guide for the Care and Use of Laboratory Animals, Colo205 human colorectal cancer cells were harvested, resuspended in HBSS, and injected s.c. into flanks (5×10^6 cells/flank) of 6-8 week old mice. […] Twenty-four hours following the final dose of CPT-11 or saline, tumors were resected from the animals. […]. Half of each tumor was frozen immediately in liquid nitrogen for subsequent extraction of RNA and the other half was fixed in 10% neutral buffer formalin overnight and then transferred 24 hours later into 70% ethanol for sectioning, microscopic analysis and analysis by in situ hybridization. Tumor xenografts of the DLD-1 colorectal cell line were treated and prepared in essentially the same manner. The masses of the DLD-1 colorectal tumor xenografts at time of resection were 0.24, 0.10 and 0.21 for saline controls and 0.21, 0.1 and 0.12 for CPT-11-treated tumors.

[2] = system: DLD-1 colorectal tumor xenografts; assay: Growth, treatment and resection of DLD-1 tumor xenografts in nude mice; format: in vivo, human; settings: DLD-1 xenografts; CPT-11-treated; at time of resection; monohydrochloride, trihydrate
From the text: as §1

Colo205 tumors = assay: Real-time PCR (TaqMan) of RNA from Colo205 xenograft tumors; format: in vivo, human
Experimental: Real-Time PCR (TaqMan®)'The source of RNA used for RT-PCR analysis was the same as that used for the preparation of probes for oligonucleotide array analysis. Quantitative Reverse Transcriptase-PCR (RT-PCR) was performed using TaqMan® assay reagents from Perkin-Elmer, Applied Biosystems, 50 μl RT-PCR reactions consisted of 5 μl 10× TaqMan Buffer A, 300 μM of each dNTP, 5 mM MgCl2, 10 unites of RNase inhibitor, 12.5 units of MuLV Reverse Transcriptase, 1.25 units of AmpliTaq Gold DNA Polymerase, 200 nM probe, 500 nM primers and 100 ng RNA. Reaction conditions consisted of reverse transcription at 48° C. for 10 minutes, denaturation at 95° C. for 10 minutes, and 40 thermal cycles of 95° C. for 25 seconds, and 65° C. for 1 min. Reaction products were analyzed on 4-agarose gels (Invitrogen). Fold-induction for each gene of interest was determined using the ΔΔCt method and the result is presented relative to both GAPDH and actin in each figure. The following specific probes and primer sets were used for MFGE8 (Acc#U58516): forward primer: […] (SEQ ID NO: 1), reverse primer: […] (SEQ ID NO: 2), and probe: […] (SEQ ID NO: 3); GPC1 (Acc#X54232): forward primer: […] (SEQ ID NO: 4), reverse primer: […] (SEQ ID NO: 5), and probe: […] (SEQ ID NO:6); AQP3 (Acc# N74607): forward primer: […] (SEQ ID NO: 7), reverse primer: […] (SEQ ID NO: 8), and probe, […] […]

DLD-1 tumors = assay: Real-time PCR (TaqMan) of RNA from DLD-1 xenograft tumors, parallel to Colo205; format: in vivo, human
Experimental: (§2) Real-Time PCR (TaqMan®)'The source of RNA used for RT-PCR analysis was the same as that used for the preparation of probes for oligonucleotide array analysis. Quantitative Reverse Transcriptase-PCR (RT-PCR) was performed using TaqMan® assay reagents from Perkin-Elmer, Applied Biosystems, 50 μl RT-PCR reactions consisted of 5 μl 10× TaqMan Buffer A, 300 μM of each dNTP, 5 mM MgCl2, 10 unites of RNase inhibitor, 12.5 units of MuLV Reverse Transcriptase, 1.25 units of AmpliTaq Gold DNA Polymerase, 200 nM probe, 500 nM primers and 100 ng RNA. Reaction conditions consisted of reverse transcription at 48° C. for 10 minutes, denaturation at 95° C. for 10 minutes, and 40 thermal cycles of 95° C. for 25 seconds, and 65° C. for 1 min. Reaction products were analyzed on 4-agarose gels (Invitrogen). Fold-induction for each gene of interest was determined using the ΔΔCt method and the result is presented relative to both GAPDH and actin in each figure. The following specific probes and primer sets were used for MFGE8 (Acc#U58516): forward primer: […] (SEQ ID NO: 1), reverse primer: […] (SEQ ID NO: 2), and probe: […] (SEQ ID NO: 3); GPC1 (Acc#X54232): forward primer: […] (SEQ ID NO: 4), reverse primer: […] (SEQ ID NO: 5), and probe: […] (SEQ ID NO:6); AQP3 (Acc# N74607): forward primer: […] (SEQ ID NO: 7), reverse primer: […] (SEQ ID NO: 8), and probe, […] (SEQ ID NO: 9); CDH17 (Acc#83228): forward primer: […] (SEQ ID NO: 10), reverse primer: […] (SEQ ID NO: 11), and probe: […] (SEQ ID NO: 12); Ly6D/E48 (Acc#Y12642): forward primer: […] (SEQ ID NO: 13); reverse primer: […] (SEQ ID NO: 14); and probe: […] (SEQ ID NO: 15); and Ly6E/SCA-2 (Acc# U66711): forward primer: […] (SEQ ID NO: 16); reverse primer: […] (SEQ ID NO: 17); and probe: […] (SEQ ID NO: 18).

normal colon tissue = assay: Real-time PCR with mouse-specific primers on normal colon of CPT-11 treated mice; format: in vivo; settings: normal colon of CPT-11 treated vs control mice; data not shown
Experimental: Real-Time PCR (TaqMan®)'The source of RNA used for RT-PCR analysis was the same as that used for the preparation of probes for oligonucleotide array analysis. Quantitative Reverse Transcriptase-PCR (RT-PCR) was performed using TaqMan® assay reagents from Perkin-Elmer, Applied Biosystems, 50 μl RT-PCR reactions consisted of 5 μl 10× TaqMan Buffer A, 300 μM of each dNTP, 5 mM MgCl2, 10 unites of RNase inhibitor, 12.5 units of MuLV Reverse Transcriptase, 1.25 units of AmpliTaq Gold DNA Polymerase, 200 nM probe, 500 nM primers and 100 ng RNA. Reaction conditions consisted of reverse transcription at 48° C. for 10 minutes, denaturation at 95° C. for 10 minutes, and 40 thermal cycles of 95° C. for 25 seconds, and 65° C. for 1 min. Reaction products were analyzed on 4-agarose gels (Invitrogen). Fold-induction for each gene of interest was determined using the ΔΔCt method and the result is presented relative to both GAPDH and actin in each figure. The following specific probes and primer sets were used for MFGE8 (Acc#U58516): forward primer: […] NO: 1), reverse primer: […] NO: 2), and probe: […] NO: 3); GPC1 (Acc#X54232): forward primer: […] NO: 4), reverse primer: […] NO: 5), and probe: […] […] Real-time PCR with primers specific for corresponding mouse transcripts was performed and with the exceptions of SPRR3 and Aquaporin-3, all of the mouse homologs were readily detected in RNA from mouse colon. […]

LY6D/E48 transcript = assay: LY6D/E48 mRNA induction in cultured cell lines by CPT-11 (real-time PCR); format: cell-based, human; settings: for LY6D/E48 transcript: monohydrochloride, trihydrate
From the text: (§3) Cell lines-Colo205, HCT116, HT29 (ATCC Nos. CCL222, CCL221, CCL247, HTB38, respectively) are human colorectal adenocarcinoma cell lines. 293 is a human immortalized embryonic kidney cell line (ATCC CRL573). PC-3 is a human prostate adenocarcinoma cell line (ATCC CRL1435) and HT1080 is a human fibrosarcoma cell line (ATCC CCL-121). PC-3 stable cell lines were generated by transfection (Effectene, Qiagen) with a CMV-driven vector encoding either an NH2-terminal gD epitope-tagged form of LY6D/E48 or an empty vector and selected in 400 μg/ml G418 (Geneticin, Life Technologies, Inc.). Growth conditions were according to American Type Culture Collection (ATCC, Manassas, Va.) guidelines. For all cell lines, CPT11 treatments were done in 10 cm dishes for the indicated timepoints. Cells were harvested and RNA was prepared using RNeasy kit (Qiagen, Hilden, Germany). TaqMan® real-time quantitative PCR analysis was performed as described below.
as §2

E48/Ly-6D = E48/Ly-6D surface expression on Colo205 cells after CPT-11 (FACS, immunofluorescence); format: cell-based, human
Experimental: For flow cytometry, cells were grown to 90% confluence and removed from plates using 2 mM EDTA in PBS. Cells were washed and resuspended in FACS buffer (PBS with 1% BSA) and incubated for 60 min with anti-LY6D/[…] monoclonal antibody 15A5 or 17H7 or anti-gd antibody (Genentech, Inc.) followed by 60 min with anti-mouse secondary antibody conjugated to PE. Analysis was performed on FACS scan.

Colo205 and DLD-1 cells = Colo205 and DLD-1 cells treated in vitro with CPT-11, expression of genes of Table I; format: cell-based, human; settings: data not shown
From the text: as §3, with “LY6D/[…]” for “LY6D/E48”

[3] = system: Colo205 human tumor xenografts; assay: In vivo efficacy study, Colo205 xenografts in nude mice; settings: CPT-11 alone, 80 mg/kg IP day 0, 4 & 8; regrowth at rapid rate after last administration

With CCc1c2c(nc3ccc(OC(=O)N4CCC(N5CCCCC5)CC4)cc13)-c1cc3c(c(=O)n1C2)COC(=O)[C@]3(O)CC [CPT-11, (S)-[1,4′-bipiperidine]-1′-carboxylic acid, 4,11-diethyl-3,4,12,14-tetrahydro-4-hydroxy-3,14-dioxo-1H-pyrano[3′,4′:6,7]indolizino(1,2-b)quinolin-9-yl ester, monohydrochloride, trihydrate] the “tumor-induced transcripts in normal mouse intestine” value (mouse colon; apart from Metallothionein (MT1G)) was “none of the transcripts that were induced in the tumors by CPT-11 were induced in the normal mouse intestine”, the cryptidin genes (mouse colon; normal colon, three animals treated with CPT-11) was “activated in two of the three animals treated with CPT-11” and the “gene activation in colon, Mu74Av2 array” value (mouse colon; unrelated to most genes induced in the xenografts) was “activation of a small number of genes in the colon”. For the same molecule, the “average tumor mass, drug treated vs control group” value ([1]; 24 hours after third injection) was “did not differ significantly”, the “average mass of the tumors” value ([1]; 24 hours after third injection, control and drug treated groups) was “approximately 300 mg” and the “mass of resected tumor (individual tumors)” value ([1]; CPT-11 80 mg/kg IP three times at 4 day intervals, 24 hours after final dose, monohydrochloride, trihydrate, 80 mg/kg) was 0.23 grams and 0.18 grams and 0.50 grams. For the same molecule, the “mass of resected tumor (individual tumors)” value [2] was 0.21 and 0.1 and 0.12, the “Galectin-7 mRNA” value (Colo205 tumors; Colo205 tumors) was “present and induced” and the “transcripts MFGE8, GPC1, AQP3, CDH17, LY6D, LY6E, identified and confirmed by real-time PCR” value (Colo205 tumors; three CPT-11 treated Colo205 tumors vs saline controls) was “significant upregulation in all three CPT-11 treated tumors relative to controls”. The “Activation of Keratin23 and E48” value (DLD-1 tumors; Colo205 and DLD-1 tumors) was “occurred in both tumor types”, the “Neuromedin U, Annexin VIII, Transglutaminase, Aquaporin-3 and Maspin” value (DLD-1 tumors; Colo205 and DLD-1 tumors) was “all induced by SPT-11 and expressed at comparable levels in the Colo205 and DLD-1 tumors” and the “Galectin-7 mRNA” value (DLD-1 tumors; DLD-1 tumors) was “undetectable in both treated or control DLD-1 tumors”. The “Periplekin and Antileukoproteinase induction” value (DLD-1 tumors; DLD-1 tumors compared with Colo205 tumors) was “induced by SPT-11 to a degree less than that observed for the Colo205 tumors”, the “genes induced by CPT-11, Colo205 and DLD-1 tumors in parallel” value (DLD-1 tumors; real-time PCR, FIG. 2) was “most of the genes were induced by CPT-11 treatment of both tumor types” and the “expression of mouse homologs of tumor-induced genes” value (normal colon tissue) was “no difference in expression of these genes was detected”. For the same molecule, the “LY6D/E48 mRNA” value (LY6D/E48 transcript; colorectal cancer cell line DLD-1) was “overexpressed LY6D/E48 MRNA in response to CPT-11”, the “LY6D/E48 mRNA” value (LY6D/E48 transcript; colorectal cancer cell line HCT116) was “overexpressed LY6D/E48 MRNA in response to CPT-11” and the “LY6D/E48 mRNA” value (LY6D/E48 transcript; colorectal cancer cell line HT29) was “overexpressed LY6D/E48 MRNA in response to CPT-11”. The LY6D/E48 transcript level (LY6D/E48 transcript; cultured Colo205 cells, 10 μM CPT-11, 24 and 48 hours) was “elevated within 24 hours post-treatment with a further enhancement by 48 hours”, the “LY6D/E48 mRNA” value (LY6D/E48 transcript; fibrosarcoma cell line HT1080) was “overexpressed LY6D/E48 MRNA in response to CPT-11” and the LY6D/E48 transcript (LY6D/E48 transcript; human embryonic kidney cell line 293, 10 μM CPT-11) was “could not be detected in the absence or presence of CPT-11; also recorded: not detected”. For the same molecule, the LY6D/E48 transcript (LY6D/E48 transcript; human prostate cancer PC3 cell line, 10 μM CPT-11) was “could not be detected in the absence or presence of CPT-11; also recorded: not detected”, the “anti-LY6D/E48 signal intensity by fluorescence activated cell sorting” value (E48/Ly-6D; Colo205 cells, increasing concentrations of CPT-11 in vitro, 2 days) was “increased in a dose dependent manner” and the “signal intensity and percentage of reactive cells by immunofluorescent microscopy” value (E48/Ly-6D; intact Colo205 cells, increasing CPT-11) was “increased with drug dosage”. The “expression of genes listed in Table I” value (Colo205 and DLD-1 cells) was “upregulation of some of the genes listed in Table I was observed” and the tumor growth [3] was “transiently reduced the rate of tumor growth”.
